Some results are limits rather than exact numbers.

For the assay, the target named is T1, GSK-3β (AA 1-420) (Homo sapiens, UniProt P49841).
T1 construct: GSK-3β (AA 1-420)
T1 sequence (P49841 whole entry, species assumed, the tested form may be a part): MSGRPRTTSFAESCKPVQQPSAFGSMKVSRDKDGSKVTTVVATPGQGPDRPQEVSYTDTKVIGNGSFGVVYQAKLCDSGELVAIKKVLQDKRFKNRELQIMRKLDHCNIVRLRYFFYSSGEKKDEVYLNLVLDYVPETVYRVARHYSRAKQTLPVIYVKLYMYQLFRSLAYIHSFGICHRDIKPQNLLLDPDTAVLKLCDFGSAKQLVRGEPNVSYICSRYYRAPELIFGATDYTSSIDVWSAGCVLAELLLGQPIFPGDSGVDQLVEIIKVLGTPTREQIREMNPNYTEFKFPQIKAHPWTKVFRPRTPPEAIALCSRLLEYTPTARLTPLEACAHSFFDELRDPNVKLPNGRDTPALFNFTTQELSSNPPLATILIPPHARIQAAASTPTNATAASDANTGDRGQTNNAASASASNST
The experiment in a line: Ki determination for the inhibition of GSK-3 (coupled enzyme system). Type of assay: biochemical. As to conditions: 20 μM ATP, 300 μM peptide, 20 nM GSK-3β, 30° C. As for the experimental part: Compounds were screened for their ability to inhibit GSK-3β (AA 1-420) activity using a standard coupled enzyme system [Fox et al. Protein Sci. 7, 2249 (1998)]. Reactions were carried out in a solution containing 100 mM HEPES (pH 7.5), 10 mM MgCl2, 25 mM NaCl, 300 μM NADH, 1 mM DTT and 1.5% DMSO. Final substrate concentrations in the assay were 20 μM ATP (Sigma Chemicals, St Louis, Mo.) and 300 μM peptide (American Peptide, Sunnyvale, Calif.). Reactions were carried out at 30° C. and 20 nM GSK-3β. Final concentrations of the components of the coupled enzyme system were 2.5 mM phosphoenolpyruvate, 300 μM NADH, 30 μg/ml pyruvate kinase and 10 μg/ml lactate dehydrogenase.
An assay stock buffer solution was prepared containing all of the reagents listed above with the exception of ATP and the test compound of interest. The assay stock buffer solution (175 μl) was incubated in a 96 well plate with 5 μl of the test compound of interest at final concentrations spanning 0.002 μM to 30 μM at 30° C. for 10 min. Typically, a 12 point titration was conducted by preparing serial dilutions (from 10 mM compound stocks) with DMSO of the test compounds in daughter plates. The reaction was initiated by the addition of 20 μl of ATP (final concentration 20 μM). Rates of reaction were obtained using a Molecular Devices Spectramax plate reader (Sunnyvale, Calif.) over 10 min at 30° C. The Ki values were determined from the rate data as a function of inhibitor concentration.
In general, Ki refers to a dissociation constant, usually derived from enzyme kinetics or from competition with a known ligand. Low values mean tighter binding, high ones weaker binding. `N#Cc1ccc(NCCNc2nc(-c3ccc(F)cc3F)nc3ccccc23)nc1` [Compound I-191, 6-{2-[2-(2,4-Difluoro-phenyl)-quinazolin-4-ylamino]-ethylamino}-nicotinonitrile] returned a Ki of less than 100 nM.
For the compound `N#Cc1ccc(-c2nc(NCCNc3ccc(C#N)cn3)c3ccccc3n2)cc1` [Compound I-19, 6-{2-[2-(4-Cyano-phenyl)-quinazolin-4-ylamino]-ethylamino}-nicotinonitrile], the Ki was less than 100 nM.
As to `N#Cc1ccc(NCCNc2nc(-c3ccccc3Cl)nc3cccnc23)nc1` [Compound I-118, 6-{2-[2-(2-Chloro-phenyl)-pyrido[3,2-d]pyrimidin-4-ylamino]-ethylamino}-nicotinonitrile], the Ki was less than 100 nM.
Turning to `N#Cc1ccc(NCCNc2nc(-c3ccc(Cl)cc3)nc3ccccc23)nc1` [Compound I-2], the Ki was less than 100 nM.
Turning to `N#Cc1ccc(NCCNc2nc(-c3ccccc3F)nc3ccccc23)nc1` [Compound I-190, 6-{2-[2-(2-Fluoro-phenyl)-quinazolin-4-ylamino]-ethylamino}-nicotinonitrile], the Ki is less than 100 nM.
With `N#Cc1ccc(NCCNc2nc(-c3ccccc3Cl)nc3ccccc23)nc1` [Compound I-11, 6-{2-[2-(2-Chloro-phenyl)-quinazolin-4-ylamino]-ethylamino}-nicotinonitrile] the figure was less than 100 nM; with `Cc1nc(-c2ccccc2Cl)nc(NCCNc2ccc(C#N)cn2)c1C` [Compound I-200], less than 100 nM; with `N#Cc1ccc(NCCNc2nc(-c3ccccc3)nc3ccccc23)nc1` [Compound I-9, 6-[2-(2-Phenyl-quinazolin-4-ylamino)-ethylamino]-nicotinonitrile], less than 100 nM.
For `N#Cc1ccc(NCCNc2nc(-c3cc(Cl)ccc3-c3ccccc3)nc3ccccc23)nc1` [Compound I-195, 6-{2-[2-(4-Chloro-biphenyl-2-yl)-quinazolin-4-ylamino]-ethylamino}-nicotinonitrile] the value was less than 100 nM; for `Cc1nc(-c2ccccc2C(F)(F)F)nc(NCCNc2ccc(C#N)cn2)c1C` [Compound I-197, 6-{2-[5,6-Dimethyl-2-(2-trifluoromethyl-phenyl)-pyrimidin-4-ylamino]-ethylamino}-nicotinonitrile], less than 100 nM; for `COc1ccccc1-c1nc(NCCNc2ccc(C#N)cn2)c2ccccc2n1` [Compound I-188, 6-{2-[2-(2-Methoxy-phenyl)-quinazolin-4-ylamino]-ethylamino}-nicotinonitrile], less than 100 nM.
With `N#Cc1ccc(NCCNc2nc(-c3ccc(Cl)cc3Cl)nc3ccccc23)cc1` [Compound I-62, 4-{2-[2-(2,4-Dichloro-phenyl)-quinazolin-4-ylamino]-ethylamino}-benzonitrile] the figure was less than 100 nM.
As for `N#Cc1ccc(NCCNc2nc(-c3ccccc3C(F)(F)F)nc3ccccc23)nc1` [Compound I-8, 6-{2-[2-(Trifluoromethyl-phenyl)-quinazolin-4-ylamino]-ethylamino}-nicotinonitrile], the Ki is less than 100 nM.
With `N#Cc1ccc(NCCNc2nc(-c3ccccc3O)nc3ccccc23)nc1` [Compound I-189, 6-{2-[2-(2-Hydroxy-phenyl)-quinazolin-4-ylamino]-ethylamino}-nicotinonitrile] the figure was less than 100 nM; with `Cc1nc(-c2ccc(Cl)cc2Cl)nc(NCCNc2ccc(C#N)cn2)c1C` [Compound I-198, 6-{2-[2-(2,4-Dichloro-phenyl)-5,6-dimethyl-pyrimidin-4-ylamino]-ethylamino}-nicotinonitrile], less than 100 nM; with `N#Cc1ccc(NCCNc2nc(-c3ccc(Cl)cc3Cl)nc3ccccc23)nc1` [Compound I-1, 6-{2-[2-(2,4-Dichloro-phenyl)-quinazolin-4-ylamino]-ethylamino}-nicotinonitrile], less than 100 nM.

The values are drawn from patent US20030199526A1, “Pyrimidine-based compounds useful as GSK-3 inhibitors” (priority 2001, published 2003).
